Data: ChEMBL document CHEMBL3244035, “Synthesis and hypoglycemic activity of 4-substituted 3-mercaptopicolinic acids” (J Med Chem, 1977)
Calls of active or inactive are those of the source. The rule behind the calls is not given here.

system: Rattus norvegicus; assay: Hypoglycemic activity in 48 hrs fasted rat assessed as reduction in blood glucose at 150 mg/kg, po measured 1 to 4 hrs post challenge; type: functional, organism-based; parameters: dose 150 mg/kg

SMILES | Activity
O=C(O)c1nccc(Cl)c1S | inactive
COc1ccnc(C(=O)O)c1S | inactive
O=C(O)c1nccc(S)c1S | inactive
CSc1ccnc(C(=O)O)c1S | inactive
O=C(O)c1nccc(Oc2ccccc2)c1S | inactive
Nc1ccnc(C(=O)O)c1S | inactive
CCc1ccnc(C(=O)O)c1S | inactive
